From US20140127158A1, “COMBINATION THERAPY FOR HEPATITIS C VIRUS INFECTION” (National Health Research Institute, priority 2012, published 2014)

Legend:
Format in all cases: cell-based, Hepatitis C virus
[1] = system: genotype 1b HCV replicon with NS5A amino acid substitutions; assay: Transient replicon assay, genotype 1b NS5A amino acid substitutions; settings: for EC50 / EC90: Hepatitis C virus
[2] = system: Infectious HCV, Genotype 2a, JFH1; assay: Small molecule inhibition of HCV infectivity (luciferase)
Description: (5) Small molecule inhibition of HCV infectivity. To quantify the inhibitory effect of DBPR110 on HCV particle formation, HCV replication in DBPR110-treated and untreated cells was quantified using a luciferase activity assay, as described previously. See, e.g., Wakita et al., Nat Med 11:791-6 (2005); and Zhang et al., Antimicrob Agents Chemother 52:666-74 (2008). In vitro-transcribed RNA derived from full-length HCV2a JFH1 infectious cDNA clone with the luciferase reporter gene was delivered to Huh-7.5 cells by electroporation. The cells were seeded at 1×10^5 cells per well in 12-well plates and incubated for 4 h. The medium was then aspirated and replaced with 1 mL of complete medium containing DBPR110 in serial concentration. The plates with compounds were incubated for 72 h and the medium were then used to infect Huh-7.5 cells. Huh-7.5 cells were seeded in 12-well plates (1×10^5 cells/well) in DMEM with 10% FBS for 24 h before infection. The HCV cell culture (HCVcc)-containing supernatant per well was added to the Huh-7.5 cells. After 72 h of incubation at 37° C., the total cell lysate was assayed for luciferase expression (Promega).

[3] = system: HCV1b reporter replicon pRS-Luc-HCV1bRep; assay: Transient HCV1b reporter replicon time course (viral translation vs RNA synthesis)
Description: (8) RNA transcription and transient replicon assay. The RNA transcripts were synthesized in vitro using ScaI-digested DNAs and the T7 MegaScript transcription kit (Ambion) according to the manufacturer's directions. A transient replicon assay was performed to quantify the compound-mediated inhibition of viral translation (Dears et al., J Virol 79:4599-609 (2005)). RNA transcripts were transfected into Huh-7.5 cells by electroporation, as described previously. See, e.g., Blight et al., J Virol 76:13001-14 (2002). A specific concentration of DBPR110 or the control medium was added to each well, and the cells were assayed to determine the luciferase activity at 4 h and 72 h post-transfection. […] For quantification of the compound-mediated inhibition, the relative luciferase activity derived from the mock-treated cells was set to 100% (Zou et al., Virology 384:242-52 (2009)).
To distinguish inhibition of viral translation from inhibition of RNA synthesis, the reduction rate of reporter gene expression level was monitored as an indicator of the inhibitory activity of DBPR110. […] The luciferase activity was monitored several times over a period of 72 hours posttransfection. […] The luciferase activity was measured at 4, 8, 24, 48, and 72 hours posttransfection.

[4] = genotype 1b NS5A V153M + M202L + M265V
[5] = genotype 1b NS5A Y93H + V153M + M202L + M265V
[6] = genotype 1b NS5A Y93N + V153M + M202L + M265V

O=C(N[C@@H](C(=O)N1CCC[C@H]1c1ncc(-c2ccc(-c3ccc(-c4cnc([C@@H]5CCCN5C(=O)[C@H](NC(=O)C5CC5)c5ccccc5)s4)cc3)cc2)s1)c1ccccc1)C1CC1 [DBPR110] was tested, and the EC50 ([1]; genotype 1b NS5A M202L) was 0.0021 ± 0.0006 nM, the EC90 ([1]; genotype 1b NS5A M202L) was 0.005 ± 0.0014 nM and the EC50 ([1]; genotype 1b NS5A M265V) was 0.002 ± 0.0009 nM. For the same compound, the EC90 ([1]; genotype 1b NS5A M265V) was 0.0051 ± 0.0017 nM, the EC50 ([1]; genotype 1b NS5A P58L) was 0.564 ± 0.194 nM and the EC90 ([1]; genotype 1b NS5A P58L) was 2.73 ± 0.909 nM. It also gave an EC50 ([1]; genotype 1b NS5A P58S) of 0.038 ± 0.014 nM, an EC90 ([1]; genotype 1b NS5A P58S) of 0.064 ± 0.011 nM and an EC50 ([1]; genotype 1b NS5A P58T) of 0.243 ± 0.04 nM. For the same compound, the EC90 ([1]; genotype 1b NS5A P58T) was 1.3 ± 0.219 nM, the EC50 ([1]; genotype 1b NS5A Parental) was 0.0015 ± 0.0006 nM and the EC90 ([1]; genotype 1b NS5A Parental) was 0.0042 ± 0.0021 nM. It also gave an EC50 ([1]; genotype 1b NS5A V153M) of 0.0013 ± 0.0005 nM, an EC90 ([1]; genotype 1b NS5A V153M) of 0.0041 ± 0.0019 nM and an EC50 [1, 4] of 0.0011 ± 0.0005 nM. For the same compound, the EC90 [1, 4] was 0.0031 ± 0.0011 nM, the EC50 ([1]; genotype 1b NS5A Y93C) was 0.078 ± 0.04 nM and the EC90 ([1]; genotype 1b NS5A Y93C) was 0.177 ± 0.062 nM. For the same compound, the EC50 ([1]; genotype 1b NS5A Y93H) was 1.41 nM, the EC90 ([1]; genotype 1b NS5A Y93H) was 7.34 nM and the EC50 [1, 5] was 8.74 nM. The EC90 [1, 5] was 37.7 nM, the EC50 ([1]; genotype 1b NS5A Y93N) was 3.82 nM and the EC90 ([1]; genotype 1b NS5A Y93N) was 13.3 nM. For the same compound, the EC50 [1, 6] was 27.3 nM, the EC90 [1, 6] was 98.9 nM and the “Fold resistance (EC50)” value ([1]; genotype 1b NS5A M202L) was 1 fold. For the same compound, the “Fold resistance (EC90)” value ([1]; genotype 1b NS5A M202L) was 1 fold, the “Fold resistance (EC50)” value ([1]; genotype 1b NS5A M265V) was 1 fold and the “Fold resistance (EC90)” value ([1]; genotype 1b NS5A M265V) was 1 fold. For the same compound, the “Fold resistance (EC50)” value ([1]; genotype 1b NS5A P58L) was 376 fold, the “Fold resistance (EC90)” value ([1]; genotype 1b NS5A P58L) was 650 fold and the “Fold resistance (EC50)” value ([1]; genotype 1b NS5A P58S) was 25 fold. For the same compound, the “Fold resistance (EC90)” value ([1]; genotype 1b NS5A P58S) was 15 fold, the “Fold resistance (EC50)” value ([1]; genotype 1b NS5A P58T) was 162 fold and the “Fold resistance (EC90)” value ([1]; genotype 1b NS5A P58T) was 310 fold. The “Fold resistance (EC50)” value ([1]; genotype 1b NS5A Parental) was 1 fold, the “Fold resistance (EC90)” value ([1]; genotype 1b NS5A Parental) was 1 fold and the “Fold resistance (EC50)” value ([1]; genotype 1b NS5A V153M) was 1 fold. For the same compound, the “Fold resistance (EC90)” value ([1]; genotype 1b NS5A V153M) was 1 fold, the “Fold resistance (EC50)” value [1, 4] was 1 fold and the “Fold resistance (EC90)” value [1, 4] was 1 fold. The “Fold resistance (EC50)” value ([1]; genotype 1b NS5A Y93C) was 52 fold, the “Fold resistance (EC90)” value ([1]; genotype 1b NS5A Y93C) was 42 fold and the “Fold resistance (EC50)” value ([1]; genotype 1b NS5A Y93H) was 939 fold. The “Fold resistance (EC90)” value ([1]; genotype 1b NS5A Y93H) was 1,747 fold, the “Fold resistance (EC50)” value [1, 5] was 5,824 fold and the “Fold resistance (EC90)” value [1, 5] was 8,979 fold. The “Fold resistance (EC50)” value ([1]; genotype 1b NS5A Y93N) was 2,547 fold, the “Fold resistance (EC90)” value ([1]; genotype 1b NS5A Y93N) was 3,168 fold and the “Fold resistance (EC90)” value [1, 6] was 23,550 fold. The Selective index ([2]; CC50/EC50, Infectious HCV, Genotype 2a, JFH1) was >720,461, the EC50 ([2]; Hepatitis C virus, read-out: Luciferase activity assay EC50) was 0.0183 nM and the EC90 ([2]; Hepatitis C virus, read-out: Luciferase activity assay EC90) was 0.258 ± 0.0502 nM. For the same compound, the “effect on the Rluc signals” value ([3]; 4 and 8 hours posttransfection (viral translation)) was “minimal effect” and the “effect on the Rluc signals” value ([3]; 24, 48, and 72 hours posttransfection (RNA replication), P<0.001) was “significantly reduced”.
